For this assay, the target named is HumRADA2 (Pyrococcus furiosus, UniProt O74036, D220A/DEL288-314/E219S/I169M/K221M/V202Y/Y201A). Description: Isothermal titration calorimetry (ITC), direct binding to HumRADA2. The conditions noted are these: for LLE: LLE=pKD−clog P, clog P calculated with Instant JChem (ChemAxon). The text has this: We previously published fragment-screening results using a humanised RAD51 surrogate from Pyrococcus furiosus, which we refer to as HumRADA2 (previously referred to as MAYSAM RadA).[23] In this surrogate protein, the N-terminal domain with the oligomerisation sequence was removed to monomerise the protein and expose the FxxA binding site for screening, and six surface residues were mutated around the Phe pocket in order to humanise the protein in this region.
Supplemental Experimental Procedures
C-terminal ATPase domain of P. furiosus RadA (residues 108–349, with deletion of the “L2” loop residues 288–314) was expressed in E.coli and purified as described before using ion-exchange ad size exclusion chromatographies.[1] Purified protein was concentrated to 0.5 mM, flash frozen in liquid nitrogen and stored at -80C. Protein concentration was determined by measuring absorbance at 280 nm in 6M GndHCl and using calculated absorption coefficient […]
Isothermal Titration Calorimetry
ITC experiments were performed at 25°C on a MicroCal ITC-200 (GE Healthcare).
HumRadA2 (humanized RadA) (600 µM in 20 mM MES pH 6.0 with 100 mM NaCl and 0.5 mM EDTA was diluted with Tris buffer (200 mM, pH 7.5 with 100 mM NaCl), and DMSO was added to match to the ligand solution. In titrations with ATP, 5 mM MgCl2 was included in the ligand buffer and the protein buffer. Compounds in DMSO were diluted into the same Tris buffer to give a final concentration of 0.6–10 mM ligand in 10% DMSO and Tris buffer. Care was taken to ensure that the DMSO concentrations in the protein and ligand solutions were well matched so as to avoid artefacts arising from heats of dilution of DMSO. In a typical experiment, protein (60 µM) was loaded in the sample cell, and 16 injections (2.4 µL) of 4.8 s duration were made at 80 s intervals from a syringe loaded with ligand (0.6–10 mM) and rotating at 1000 rpm. In all titrations, an initial injection of ligand (0.4 µL) was made and discarded during data analysis. Control titrations of ligand to buffer were performed and […]
The thermodynamic parameters were obtained by fitting the data to a single-site-binding model by using Origin software and fixing the stoichiometry as 1.0 for […]

Where [1] appears, read: tryptophan ester series (Table 1).
Setting [2] is: ITC thermodynamic binding profile, Table S1.
Setting [3] is: substituted tryptamine series (Table 2).

The text below walks through data of publication PMC4506530, “Small-Molecule Inhibitors That Target Protein–Protein Interactions in the RAD51 Family of Recombinases” (Chemmedchem, 2014).

Structures are written as SMILES.

`Cl.N[C@@H](Cc1c[nH]c2ccccc12)C(=O)Oc1ccccc1` [5 a]: the affinity, expressed as Kd, was 190 ± 5 µM. Also, under setting [1], the LLE is listed as 0.7 and the “LE (ligand efficiency)” value is given as 0.24 kcal mol−1 per heavy atom.

With `Cl.N[C@@H](Cc1c[nH]c2ccccc12)C(=O)OCc1ccccc1` [5 b], the Kd (in general, the concentration at which binding is half-saturated) came out at 200 ± 8 µM. Further, under setting [1], the LLE is given as 0.7 and the “LE (ligand efficiency)” value stood at 0.23 kcal mol−1 per heavy atom.

The compound `Cl.N[C@@H](Cc1c[nH]c2ccccc12)C(=O)OCCCc1ccccc1` [5 d] registered a Kd of 160 ± 7 µM. Under setting [1], the LLE is listed as 0.02 and the “LE (ligand efficiency)” value is on record as 0.22 kcal mol−1 per heavy atom.

On to `N[C@@H](Cc1c[nH]c2ccccc12)C(=O)NCCc1ccccc1` [5 e], for which the Kd was above 200 µM.

`Cl.N[C@@H](Cc1c[nH]c2ccccc12)C(=O)OCCc1ccccc1F` [5 f]: the Kd worked out at 25 ± 5 µM. In addition, under setting [1], the LLE is listed as 1.1 and the “LE (ligand efficiency)” value is given as 0.26 kcal mol−1 per heavy atom.

In turn, `Cl.N[C@@H](Cc1c[nH]c2ccccc12)C(=O)OCCc1ccccc1O` [5 g] displayed a Kd of 27 ± 12 µM. Moreover, under setting [1], the LLE is reported as 1.5 and the “LE (ligand efficiency)” value is listed as 0.26 kcal mol−1 per heavy atom.

The compound `Cc1ccccc1CCOC(=O)[C@@H](N)Cc1c[nH]c2ccccc12.Cl` [5 h] returned a Kd of 30 ± 9 µM. For the same compound, under setting [1], the LLE is reported as 0.7 and the “LE (ligand efficiency)” value is listed as 0.26 kcal mol−1 per heavy atom.

`Cc1cccc(CCOC(=O)[C@@H](N)Cc2c[nH]c3ccccc23)c1.Cl` [5 i] gave a Kd of 30 ± 7 µM. For the same compound, under setting [1], the LLE is recorded as 0.7 and the “LE (ligand efficiency)” value is given as 0.26 kcal mol−1 per heavy atom.

As to `Cc1ccc(CCOC(=O)C(N)Cc2c[nH]c3ccccc23)cc1` (centres unmarked) [5 j], the Kd is 22 ± 4 µM. Moreover, under setting [1], the LLE is reported as 0.8 and the “LE (ligand efficiency)” value amounted to 0.26 kcal mol−1 per heavy atom.

The compound `COc1ccc(CCOC(=O)[C@@H](N)Cc2c[nH]c3ccccc23)cc1` [5 k] returned a Kd above 200 µM.

For the compound `N[C@@H](Cc1c[nH]c2ccccc12)C(=O)OCCc1ccc(Br)cc1` [5 l], the dissociation constant Kd is above 200 µM.

As to `Cl.N[C@@H](Cc1c[nH]c2ccccc12)C(=O)OCCC1CCCCC1` [5 m], binding was characterised by a dissociation constant (Kd) of 28 ± 9 µM. Under setting [1], the LLE is listed as 0.8 and the “LE (ligand efficiency)” value came to 0.27 kcal mol−1 per heavy atom.

Turning to `Cl.N[C@@H](Cc1c[nH]c2ccccc12)C(=O)OCCc1c[nH]c2ccccc12` [5 n], the Kd was found to be 35 ± 9 µM. Under setting [1], the LLE was 1.0 and the “LE (ligand efficiency)” value was found to be 0.23 kcal mol−1 per heavy atom.

As to `O=C(NC(Cc1c[nH]c2ccccc12)C(=O)OCCc1ccccc1)c1ccccc1` (centres unmarked) [6 a], the Kd was determined as 3 ± 1 µM. Under setting [2], the “-TDS” value is -4.2 kcal/mol, the DG is -7.6 kcal/mol and the DH is -3.4 kcal/mol. Under setting [1], the LLE is 0.5 and the “LE (ligand efficiency)” value is listed as 0.24 kcal mol−1 per heavy atom.

Consider `CC(=O)N[C@@H](Cc1c[nH]c2ccccc12)C(=O)OCCc1ccccc1F` [6 b], for which binding was put at a Kd of 18 ± 1 µM. For the same compound, under setting [1], the LLE was 1.5 and the “LE (ligand efficiency)” value was determined as 0.25 kcal mol−1 per heavy atom.

The compound `O=C(N[C@@H](Cc1c[nH]c2ccccc12)C(=O)OCCc1ccccc1)c1cccc([N+](=O)[O-])c1` [6 c] displayed a Kd above 200 µM.

The compound `O=C(NC(Cc1c[nH]c2ccccc12)C(=O)OCCc1ccccc1)C1CCCCC1` (centres unmarked) [6 d] returned a Kd above 200 µM.

`O=C(CCc1ccccc1)N[C@@H](Cc1c[nH]c2ccccc12)C(=O)OCCc1ccccc1` [6 e] showed an equilibrium dissociation constant (Kd) above 200 µM.

As for `O=S(=O)(NCCc1c[nH]c2ccccc12)c1ccccc1` [7 a], the Kd was determined as 28 ± 6 µM. Further, under setting [3], the LLE is recorded as 1.6 and the “LE (ligand efficiency)” value worked out at 0.30 kcal mol−1 per heavy atom.

The compound `O=S(=O)(Cc1ccccc1)NCCc1c[nH]c2ccccc12` [7 b] displayed a Kd above 200 µM. Where the note is “ITC, substituted tryptamine sulfonamide series (Table 2), error from fitting a single-site binding model”, the KD entry was “No activity was detectable”.
